Experimental data as given in patent US20220054588A1, “USE OF SAP FOR THE TREATMENT OF EUROTIOMYCETES FUNGI INFECTIONS” (HUMANITAS MIRASOLE S.P.A., priority 2018, published 2022).

System: membrane attack complex (MAC; C5b-C9) on A. fumigatus conidia
Experiment: FACS analysis of MAC (C5b-C9) deposition on A. fumigatus conidia in human sera
Format: biochemical
Protocol: FIG. 12 depicts the therapeutic efficacy of SAP in treatment of invasive aspergillosis. a) b) c) survival of transiently immunosuppressed wt mice after injection with the indicated doses of AF conidia. The curve of untreated mice (n=3) with cyclophosphamide is also shown (a). Human SAP (4 mg/Kg) was injected at 2 h and 24 h after infection. a) AF 5.10^7, n=17; AF 5.10^7+SAP, n=15; b) AF 1.10^7, n=7; AF 1.10^7+SAP, n=8; c) AF 5.10^6, n=8; AF 5.10^6+SAP, n=10.***, P<0.005 SAP-treated vs. saline (Mantel-Cox test). One-way ANOVA, P<0.0001. d) lung CFU in mice treated with cyclophosphamide and infected with 1.10^7 AF conidia.*, P<0.05 (Mann-Whitney test). e) quantitative analysis of AF viability performed using a resazurin-based assay. Plasma (30%) from wt and Apcs^−/− mice were incubated (1 min) with 1.5×10^5 AF conidia pre-opsonized or not with SAP. Results are mean±SD of red fluorescence (excitation/emission 535/580-610 nm) intensity of the resazurin once reduced to resorufin within viable cells. Effect of Posaconazole (POC; 1 μM) exposure is also shown. Results are mean±SEM relative to the condition without serum (grey symbols) of two experiments performed with n=10 mice/group. […] AF viability assay performed in sera depleted from complement components. Figure summarizes one experiment out of 5 also conducted with serum 10%. Mean±SD.*, P<0.05; **, P<0.01 (unpaired t-test). g) and h) FACS analysis of MAC deposition on AF conidia (1×10^7) in presence of sera depleted from complement components (e) and the effect of SAP (f). Mean±SEM of 2 experiments performed out of 4. e, f,*, P<0.05;**, P<0.01;***, P<0.005;****, P<0.001; (Mann-Whitney test).
Complement deposition on Aspergillus fumigatus. A volume of 10 μl PBS, pH 7.4, containing 1×10^7 conidia eventually opsonized with murine SAP (100 μg/ml per 1×10^9 conidia, 1 h at r.t.) was incubated (37° C.) in round bottom wells of Corning® 96-well polypropylene microplates for the indicated time points with 20 μl mouse plasma-heparin or 20 μl human NS and complement depleted sera (diluted in PBS at 10% and 30%). Complement deposition was blocked by addition of EDTA (10 mM final concentration) and by cooling in ice. After centrifugation (2000 rpm, 10 min at 4° C.), when indicated supernatant was collected for C5a measurement by ELISA. […] Conidia were then incubated (1 h, at 4° C.) with Alexa Fluor® 488 and 647-conjugated species-specific cross-adsorbed detection antibodies (2 μg/ml; ThermoFisher Scientific-Molecular Probes) and analysed by BD FACS Canto™ II Flow Cytometer (BD Biosciences) using forward and side scatter parameters to gate on at least 8,000 conidia. […] Results were expressed as frequency of conidia showing fluorescence compared with irrelevant controls and as geometric conidia MFI.

Measured: MAC formation on conidia

human native SAP: Native SAP from human serum purchased by Merck-Millipore; Serum Amyloid P component, SEQ ID NO: 1
enhanced: FB-depleted serum | FH-depleted serum | MBL-depleted serum | normal serum, 1 min and 30 min
